Measured values published in publication PMC10174618, “Monoterpenoid aryl hydrocarbon receptor allosteric antagonists protect against ultraviolet skin damage in female mice” (Nature Communications, 2023).

What was measured:
Experiment in all cases: biochemical
Design in all cases: KINOMEscan scanMAX active site-directed competition binding assay, percent of control, 468 kinases
Settings in all cases: competition binding, percent of control
SgK110 = molecular target: T1, SgK110 (Homo sapiens, UniProt P0C264)
T1 construct: gene SBK3
Method in brief: (§1)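 KINOMEscan active site-directed competition binding assay against 468 human kinases with 100 μM S-carvone. Binding expressed as % of control, with 35% of control as the inhibition threshold.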

RIOK3 = RIOK3 (Homo sapiens, UniProt O14730)
Method in brief: as §1

FLT3(ITD) = FLT3(ITD) (Homo sapiens, UniProt P36888, ITD)
Method in brief: as §1

[1] = molecular target: T2, RSK2(Kin.Dom.2-C-terminal) (Homo sapiens, UniProt P51812)
T2 construct: gene RPS6KA3; Kin.Dom.2-C-terminal
Method in brief: as §1

[2] = molecular target: T3, ABL1(Q252H)-nonphosphorylated (Homo sapiens, UniProt P00519, Q252H)
T3 construct: nonphosphorylated
Method in brief: as §1

KIT(D816H) = KIT(D816H) (Homo sapiens, UniProt P10721, D816H)
Method in brief: as §1

BLK = BLK (Homo sapiens, UniProt P51451)
Method in brief: as §1

ULK3 = ULK3 (Homo sapiens, UniProt Q6PHR2)
Method in brief: as §1

PKMYT1 = PKMYT1 (Homo sapiens, UniProt Q99640)
Method in brief: as §1

CDK2 = CDK2 (Homo sapiens, UniProt P24941)
Method in brief: as §1

MKK7 = molecular target: T4, MKK7 (Homo sapiens, UniProt O14733)
T4 construct: gene MAP2K7
Method in brief: as §1

EPHA6 = EPHA6 (Homo sapiens, UniProt Q9UF33)
Method in brief: as §1

PIP5K1C = PIP5K1C (Homo sapiens, UniProt O60331)
Method in brief: as §1

SRC = SRC (Homo sapiens, UniProt P12931)
Method in brief: as §1

KIT = KIT (Homo sapiens, UniProt P10721)
Method in brief: as §1

IRAK4 = IRAK4 (Homo sapiens, UniProt Q9NWZ3)
Method in brief: as §1

CDK7 = CDK7 (Homo sapiens, UniProt P50613)
Method in brief: as §1

CDK8 = CDK8 (Homo sapiens, UniProt P49336)
Method in brief: as §1

PRKX = PRKX (Homo sapiens, UniProt P51817)
Method in brief: as §1

PHKG2 = PHKG2 (Homo sapiens, UniProt P15735)
Method in brief: as §1

FLT3(D835Y) = FLT3(D835Y) (Homo sapiens, UniProt P36888, D835Y)
Method in brief: as §1

Sequence of PRKX (P51817 whole entry): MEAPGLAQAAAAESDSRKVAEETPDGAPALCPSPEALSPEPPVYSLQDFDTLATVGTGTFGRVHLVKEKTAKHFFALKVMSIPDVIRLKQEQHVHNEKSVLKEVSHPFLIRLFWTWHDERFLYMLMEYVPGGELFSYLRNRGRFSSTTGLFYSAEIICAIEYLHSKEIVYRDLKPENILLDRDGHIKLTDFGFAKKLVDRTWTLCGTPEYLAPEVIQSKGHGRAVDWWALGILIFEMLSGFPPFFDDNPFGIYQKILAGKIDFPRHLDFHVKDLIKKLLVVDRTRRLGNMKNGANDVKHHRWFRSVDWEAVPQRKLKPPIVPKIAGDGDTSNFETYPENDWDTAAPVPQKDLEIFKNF
Sequence of CDK8 (P49336 whole entry): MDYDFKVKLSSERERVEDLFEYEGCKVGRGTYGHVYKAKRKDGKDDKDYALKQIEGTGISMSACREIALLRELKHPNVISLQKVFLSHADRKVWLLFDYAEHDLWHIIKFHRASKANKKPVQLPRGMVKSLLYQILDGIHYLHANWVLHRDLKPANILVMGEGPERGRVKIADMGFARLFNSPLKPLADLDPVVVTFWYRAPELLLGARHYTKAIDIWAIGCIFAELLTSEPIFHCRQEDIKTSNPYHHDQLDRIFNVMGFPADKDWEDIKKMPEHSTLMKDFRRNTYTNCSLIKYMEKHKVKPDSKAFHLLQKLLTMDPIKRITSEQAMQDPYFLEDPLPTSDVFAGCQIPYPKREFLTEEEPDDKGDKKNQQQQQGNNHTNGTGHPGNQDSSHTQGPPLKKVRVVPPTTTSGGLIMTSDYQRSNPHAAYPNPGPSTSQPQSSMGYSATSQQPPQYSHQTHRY
Sequence of KIT(D816H) (P10721 whole entry D816H): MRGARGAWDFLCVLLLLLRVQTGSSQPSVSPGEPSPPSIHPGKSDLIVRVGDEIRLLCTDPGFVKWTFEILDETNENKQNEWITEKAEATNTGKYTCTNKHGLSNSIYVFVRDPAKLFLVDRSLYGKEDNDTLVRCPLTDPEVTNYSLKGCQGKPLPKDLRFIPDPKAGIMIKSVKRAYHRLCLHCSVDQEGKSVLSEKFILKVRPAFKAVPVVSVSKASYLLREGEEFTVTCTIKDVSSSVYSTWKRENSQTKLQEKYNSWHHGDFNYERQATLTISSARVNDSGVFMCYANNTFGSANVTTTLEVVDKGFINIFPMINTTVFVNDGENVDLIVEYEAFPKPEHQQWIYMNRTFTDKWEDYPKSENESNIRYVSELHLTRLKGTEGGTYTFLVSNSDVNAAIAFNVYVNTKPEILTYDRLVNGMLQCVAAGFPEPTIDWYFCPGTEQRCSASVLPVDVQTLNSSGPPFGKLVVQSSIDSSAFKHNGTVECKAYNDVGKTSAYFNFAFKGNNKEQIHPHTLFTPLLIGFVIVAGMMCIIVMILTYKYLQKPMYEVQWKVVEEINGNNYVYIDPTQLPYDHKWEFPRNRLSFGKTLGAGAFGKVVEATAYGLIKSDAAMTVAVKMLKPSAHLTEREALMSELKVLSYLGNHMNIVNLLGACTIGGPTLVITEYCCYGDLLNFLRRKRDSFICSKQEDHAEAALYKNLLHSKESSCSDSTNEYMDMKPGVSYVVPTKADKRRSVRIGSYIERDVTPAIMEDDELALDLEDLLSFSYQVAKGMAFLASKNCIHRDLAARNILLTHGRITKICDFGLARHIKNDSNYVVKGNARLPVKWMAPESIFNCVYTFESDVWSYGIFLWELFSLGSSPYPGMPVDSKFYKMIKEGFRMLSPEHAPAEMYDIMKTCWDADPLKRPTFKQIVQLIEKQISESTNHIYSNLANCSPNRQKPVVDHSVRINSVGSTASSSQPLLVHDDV
Sequence of SRC (P12931 whole entry): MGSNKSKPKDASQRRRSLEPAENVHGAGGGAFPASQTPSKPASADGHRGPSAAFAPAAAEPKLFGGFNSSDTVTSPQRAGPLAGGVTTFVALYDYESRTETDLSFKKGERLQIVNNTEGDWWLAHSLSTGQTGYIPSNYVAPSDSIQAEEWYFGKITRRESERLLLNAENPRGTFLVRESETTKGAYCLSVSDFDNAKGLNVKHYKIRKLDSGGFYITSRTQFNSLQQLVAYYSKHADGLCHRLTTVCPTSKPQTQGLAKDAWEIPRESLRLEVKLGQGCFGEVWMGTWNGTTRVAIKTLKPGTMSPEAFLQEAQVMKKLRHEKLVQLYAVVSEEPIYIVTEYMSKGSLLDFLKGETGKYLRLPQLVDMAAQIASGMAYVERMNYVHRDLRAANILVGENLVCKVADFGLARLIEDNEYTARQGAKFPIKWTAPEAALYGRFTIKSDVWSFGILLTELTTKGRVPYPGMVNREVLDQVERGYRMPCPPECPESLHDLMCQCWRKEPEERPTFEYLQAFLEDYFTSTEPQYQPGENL
Sequence of BLK (P51451 whole entry): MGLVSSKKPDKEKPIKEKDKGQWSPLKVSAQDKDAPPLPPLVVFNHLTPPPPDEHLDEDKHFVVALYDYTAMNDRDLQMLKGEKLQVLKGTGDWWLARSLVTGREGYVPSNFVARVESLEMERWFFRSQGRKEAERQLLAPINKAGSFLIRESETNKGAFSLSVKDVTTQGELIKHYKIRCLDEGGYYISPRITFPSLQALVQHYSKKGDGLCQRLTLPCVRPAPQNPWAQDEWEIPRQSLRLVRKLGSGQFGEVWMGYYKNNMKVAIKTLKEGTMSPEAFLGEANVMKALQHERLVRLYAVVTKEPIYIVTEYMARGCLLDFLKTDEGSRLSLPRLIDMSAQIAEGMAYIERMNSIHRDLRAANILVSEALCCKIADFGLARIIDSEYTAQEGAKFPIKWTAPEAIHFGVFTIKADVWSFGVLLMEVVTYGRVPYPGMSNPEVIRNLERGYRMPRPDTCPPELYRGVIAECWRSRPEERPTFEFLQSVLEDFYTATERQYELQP
T4 sequence (O14733 whole entry): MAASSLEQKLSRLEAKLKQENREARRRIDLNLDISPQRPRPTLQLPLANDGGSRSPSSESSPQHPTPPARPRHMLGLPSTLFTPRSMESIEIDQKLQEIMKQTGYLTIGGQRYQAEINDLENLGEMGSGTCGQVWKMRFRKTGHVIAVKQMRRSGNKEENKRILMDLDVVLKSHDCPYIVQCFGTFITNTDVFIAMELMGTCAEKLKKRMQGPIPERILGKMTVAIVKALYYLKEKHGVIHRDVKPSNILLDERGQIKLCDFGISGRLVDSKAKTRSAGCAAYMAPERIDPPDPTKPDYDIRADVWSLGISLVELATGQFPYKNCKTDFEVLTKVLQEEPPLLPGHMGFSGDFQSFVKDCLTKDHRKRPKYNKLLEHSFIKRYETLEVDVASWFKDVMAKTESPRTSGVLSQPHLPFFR
Sequence of PIP5K1C (O60331 whole entry): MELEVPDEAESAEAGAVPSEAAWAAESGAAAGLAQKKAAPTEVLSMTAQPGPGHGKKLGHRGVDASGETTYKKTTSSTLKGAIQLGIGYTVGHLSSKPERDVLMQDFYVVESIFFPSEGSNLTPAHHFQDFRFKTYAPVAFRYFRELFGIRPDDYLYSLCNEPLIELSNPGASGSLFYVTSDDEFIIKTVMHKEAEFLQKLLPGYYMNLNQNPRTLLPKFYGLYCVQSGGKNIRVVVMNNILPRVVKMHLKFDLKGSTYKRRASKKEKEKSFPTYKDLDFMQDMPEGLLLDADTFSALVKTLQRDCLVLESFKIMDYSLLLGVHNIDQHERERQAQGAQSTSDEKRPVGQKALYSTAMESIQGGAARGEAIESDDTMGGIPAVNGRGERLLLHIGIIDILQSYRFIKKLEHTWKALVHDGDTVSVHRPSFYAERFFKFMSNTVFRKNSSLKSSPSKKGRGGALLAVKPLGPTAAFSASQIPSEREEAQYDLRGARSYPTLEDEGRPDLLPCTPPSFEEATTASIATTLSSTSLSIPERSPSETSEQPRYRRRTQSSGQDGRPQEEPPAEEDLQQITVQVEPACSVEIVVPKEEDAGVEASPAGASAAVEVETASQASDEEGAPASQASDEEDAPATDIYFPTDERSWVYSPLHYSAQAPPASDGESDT
Sequence of ULK3 (Q6PHR2 whole entry): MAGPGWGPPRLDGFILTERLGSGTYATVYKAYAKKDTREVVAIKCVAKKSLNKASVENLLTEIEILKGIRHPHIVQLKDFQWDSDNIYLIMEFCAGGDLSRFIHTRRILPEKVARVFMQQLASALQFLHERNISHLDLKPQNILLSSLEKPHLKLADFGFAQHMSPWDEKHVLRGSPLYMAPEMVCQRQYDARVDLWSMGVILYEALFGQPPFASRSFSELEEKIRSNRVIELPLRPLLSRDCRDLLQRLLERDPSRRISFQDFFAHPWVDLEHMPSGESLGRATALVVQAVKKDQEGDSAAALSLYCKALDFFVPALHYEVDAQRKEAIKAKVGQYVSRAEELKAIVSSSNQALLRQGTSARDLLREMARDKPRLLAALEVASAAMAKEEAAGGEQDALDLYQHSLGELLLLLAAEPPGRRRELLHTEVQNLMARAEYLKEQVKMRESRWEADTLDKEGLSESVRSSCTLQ
Sequence of PKMYT1 (Q99640 whole entry): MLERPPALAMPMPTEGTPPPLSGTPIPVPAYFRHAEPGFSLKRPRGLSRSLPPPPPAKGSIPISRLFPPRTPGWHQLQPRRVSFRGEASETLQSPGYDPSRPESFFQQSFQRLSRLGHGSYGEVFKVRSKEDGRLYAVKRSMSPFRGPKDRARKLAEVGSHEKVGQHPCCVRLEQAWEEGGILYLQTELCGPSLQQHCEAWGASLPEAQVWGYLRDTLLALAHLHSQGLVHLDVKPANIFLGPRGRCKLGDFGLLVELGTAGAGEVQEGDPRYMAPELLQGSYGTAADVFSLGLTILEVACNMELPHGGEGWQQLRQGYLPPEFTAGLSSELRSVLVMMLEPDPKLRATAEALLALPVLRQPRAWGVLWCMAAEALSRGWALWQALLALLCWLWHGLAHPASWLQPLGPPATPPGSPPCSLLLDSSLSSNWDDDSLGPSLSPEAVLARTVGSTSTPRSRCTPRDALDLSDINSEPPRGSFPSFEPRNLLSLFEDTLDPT
Sequence of KIT (P10721 whole entry): as the sequence (P10721 whole entry D816H) above, with H816D counted along it

Question: What does the source list for C=C(C)[C@H]1CC=C(C)C(=O)C1 [S-carvone]?
Answer: remaining binding at 100 µM (SgK110): 93%; remaining binding at 100 µM (RIOK3): 89%; remaining binding at 100 µM (FLT3(ITD)): 92%; remaining binding at 100 µM [1]: 67%; remaining binding at 100 µM [2]: 66%; remaining binding at 100 µM (KIT(D816H)): 46%; remaining binding at 100 µM (BLK): 80%; remaining binding at 100 µM (ULK3): 77%; remaining binding at 100 µM (PKMYT1): 86%; remaining binding at 100 µM (CDK2): 85%; remaining binding at 100 µM (MKK7): 67%; remaining binding at 100 µM (EPHA6): 64%; remaining binding at 100 µM (PIP5K1C): 100%; remaining binding at 100 µM (SRC): 77%; remaining binding at 100 µM (KIT): 82%; remaining binding at 100 µM (IRAK4): 68%; remaining binding at 100 µM (CDK7): 65%; remaining binding at 100 µM (CDK8): 84%; remaining binding at 100 µM (PRKX): 100%; remaining binding at 100 µM (PHKG2): 84%; remaining binding at 100 µM (FLT3(D835Y)): 90%
